Data taken from ChEMBL document CHEMBL3507680, “University of Dundee, Gates Library screen for HepG2 cell viability”.

assay: Human HepG2 cell viability assay in 384 well format; format: toxicity, cell-based; set-up: dose 125 nL, time 70.5 hour; cytotoxicity at 70.5 h: concentration not given beside the values; conditions: HepG2 cells, read-out: Inhibition

Row | Structure (SMILES) | cytotoxicity at 70.5 h [%]
1 | Cc1cccc2c1nc1n2[C@@H](CNC(=O)CCC(=O)O)COC1 | -4.85
2 | CS(=O)(=O)N1CCc2sc(C(=O)NCc3ccccc3)cc21 | -9.68
3 | Cc1cnn(C2CCCN(C(=O)c3ccc(N4CCCC4)nn3)C2)c1 (stereo not drawn) | 1.64
4 | CC(C)c1cc(NC(=O)CN2CCC(N3CCCCC3)CC2)on1 | -1.37
5 | COC(=O)[C@H]1CN(C(=O)NC(C)C)CCN1C(=O)C1CCCCC1 | 10.7
6 | CC(C)(C)NC(=O)N1CCC(NC(=O)Cc2cccnc2)CC1 | -3.09
7 | c1cc(-c2ccn(CCN3CCCC3)n2)cc(-c2nccs2)c1 | -6.38
8 | O=C(NCc1cccc(C(F)(F)F)c1)C(c1cccnc1)N1CCCC1 (stereo not drawn) | -4.98
9 | COc1ccc(-c2nc(CN3CCOCS3(=O)=O)c(C)o2)cc1 | -0.0234
10 | Cc1noc([C@@H]2CCO[C@@H]3CCN(Cc4cccs4)C[C@@H]32)n1 | 9.6
11 | O=C(N1CCCO1)[C@@]12CCO[C@@H]1CCN(Cc1cccnc1)C2 | -9.68
12 | CCN(CC)S(=O)(=O)CC(=O)N1CCc2ccc(Cl)cc21 | -1.78
13 | CCC[C@@H]1CN(Cc2ccc(C(F)(F)F)nc2)C[C@H]1C(=O)O | -8.04
14 | COCCCn1nnc(C2(NC(=O)c3ccccc3)CCCC2)n1 | -12.2
15 | COc1ccc(C(=O)NCC(c2cccn2C)N2CCCC2)cc1OC (stereo not drawn) | -4.98
16 | CSc1cc2c(cc1NC(=O)NCC1CCOC1)OCCO2 (stereo not drawn) | -1.8
17 | CCOCc1nn(CC2CC2)c2c1CN(Cc1cccs1)CC2 | -6.81
18 | Cc1cnn(CCNCC(=O)NCCOc2ccc(F)cc2)c1 | -9.5
19 | CCC(c1nc(C(C)C)nn1-c1ccncc1C)n1cccn1 (stereo not drawn) | -9.34
20 | Cc1csc(CNc2cnc3c(c2)c(C)nn3C)n1 | 12.8
21 | CN(CCCc1nccn1C)C(=O)C1CCN(C(=O)C2CC2)CC1 | 0.477
22 | Cc1cccnc1CNc1ccc(C(=O)N2CCc3ccccc32)cn1 | 0.0725
23 | CCN(CC)CC(=O)NCCc1csc(N2CCCC2)n1 | -3.59

Row | Structure (SMILES) | cytotoxicity at 70.5 h [%]
24 | CCc1oc2ccc(NS(=O)(=O)CC)cc2c1C(=O)OC | -5.49
25 | CC(Cn1ccnc1)NS(=O)(=O)c1ccc(C#N)c(Cl)c1 (stereo not drawn) | -9.17
26 | Cc1ccc(C(=O)N[C@H]2CN(CCO)C[C@@H]2C2CC2)cc1Cl | 1.11
27 | Cc1c(C(=O)NCC(C)C)nnn1-c1cccc2c1CCN(C(C)C)C2 | -0.43
28 | Cc1ncsc1CN1CC[C@H]2OCC[C@@]2(C(=O)N2CCOCC2)C1 | -4.06
29 | CCc1noc(-c2ccc(SCC(=O)O)nc2)n1 | 13.8
30 | Cc1ccc(CC(=O)N(CC2CN(C)CCO2)c2nccs2)cn1 (stereo not drawn) | 11.5
31 | Cc1nn(C)cc1CNC(=O)c1cn(CCC2CCCCN2)nn1 (stereo not drawn) | -8.92
32 | Cc1ccc(NC(=O)C2CSCN2C(=O)c2cnccn2)cc1C (stereo not drawn) | -9.37
33 | CN(Cc1ccccc1F)C(=O)Cn1cc(NC(=O)C(C)(C)C)cn1 | 10.7
34 | CNC(=O)[C@@]12CCCN(c3ncccn3)[C@@H]1CN(c1ncc(F)cn1)C2 | -0.144
35 | CCn1ncc2c1NC(=O)CC2c1cnc(NCc2ccccc2)nc1 (stereo not drawn) | 14.7
36 | COc1ccc2cc(NC(=O)CCNc3ncccn3)cnc2c1 | -29.1
37 | CN(C)S(=O)(=O)N1C[C@H]2CCC[C@@]2(COCC2CC2)C1 | 16.4
38 | CN(C)S(=O)(=O)c1csc(C(=O)N2CCSCC2)c1 | -1.94
39 | Cc1ccoc1-c1nnc(CN2CCOC(Cn3cccn3)C2)o1 (stereo not drawn) | -2.97
40 | Cc1cc(NC(=O)COC(=O)c2ccc(F)cc2Br)n(C)n1 | -12.3
41 | Cn1cc(S(=O)(=O)Nc2c(F)cccc2N2CCCC2)cn1 | -4.97
42 | CC(=O)C1(c2ccccc2)CCN(C(=O)CC2CNCCO2)CC1 (stereo not drawn) | -31.5
43 | N[C@H]1c2ccccc2C[C@@H]1NC(=O)C1CCN(Cc2ccco2)CC1 | -11.4
44 | O=C1CN(C(=O)c2cc3c(F)cc(Br)cc3[nH]2)CCN1 | -4.59
45 | Cc1cccnc1C(NC(=O)CNC(=O)c1ccoc1C)C(C)C (stereo not drawn) | 3.13
46 | CCNC(=O)c1cn(C(C)(C)C)c2ncccc12 | -0.924

Row | Structure (SMILES) | cytotoxicity at 70.5 h [%]
47 | c1ncc2c(n1)CN(Cc1nc(-c3ccsc3)no1)CC2 | -14.7
48 | CC(=O)N1CCC(c2nnc3ccc(C(=O)NC(C)C)cn23)C1 (stereo not drawn) | -1.85
49 | O=C(NCCNc1ccc(C(F)(F)F)cn1)c1ccc(Br)cc1F | 17.1
50 | COCCN1CCC(Cc2cncc(-c3ccc(C(=O)O)cc3)n2)C1 (stereo not drawn) | -11.8
51 | O=C(c1cc2ccccc2[nH]1)N1CCC(Nc2cccnn2)CC1 | -6.88
52 | COc1ccc2cc(CNCc3c(C)nn(C)c3N(C)C)ccc2c1 | 23
53 | c1ccc2c(c1)CCN(c1nc(N3CCOCC3)c3nn[nH]c3n1)C2 | -0.0594
54 | Cc1cc(C(=O)N2CCc3ncc(CN4CCOCC4)n3CC2)no1 | 28.9
55 | CCc1nc(NC2CCN(CC(=O)NC3CC3)CC2)c2cnn(C)c2n1 | 14.5
56 | CC(=O)NCC1CCC2(CCN(c3nccc(C4CCCC4)n3)CC2)O1 (stereo not drawn) | -7.84
57 | CN(C)c1ncccc1CNC(=O)N1CCN(C)c2ccccc2C1 | -8.8
58 | O=C(c1ccc2[nH]cnc2c1)N1CCC(Oc2ccccn2)CC1 | 1.58
59 | CCc1noc(CNc2ccc(CC(=O)N3CCSCC3)cc2)n1 | -6.52
60 | Cc1nccn1-c1cc(CNC(=O)C(C)(C)C)ccn1 | -4.88
61 | CC(C)CCC1=NC2(CCN(C(=O)N3CCN(C)CC3)CC2)C(=O)N1 | 2.1
62 | CN1CCCC(c2ccnc(C(=O)NCC3CC3)c2)C1 (stereo not drawn) | -2.35
63 | CCC(NC(=O)C1CCN(S(C)(=O)=O)CC1)c1ccc(C)cc1 (stereo not drawn) | -3.68
64 | NC(=O)CSCC(=O)N1CCc2cc(Cl)cc(Cl)c2C1 | -10.4
65 | CC(C)c1noc(C2CCCN2C(=O)Cc2cn3ccsc3n2)n1 (stereo not drawn) | -9.25
66 | NC(=O)N1CCCC(C(=O)NCCOc2ccc(F)cc2F)C1 (stereo not drawn) | 0.645
67 | O=C([C@H]1C[C@H]2OCC[C@H]2N(Cc2ccccc2F)C1)N1CCCCO1 | -7.79
68 | Cc1ncsc1COC(=O)c1cccc2c1OCCO2 | -5.64
69 | O=C1c2cnc(N3CCCC3)nc2CN1CCc1ccc(Cl)cc1 | -6.15

Row | Structure (SMILES) | cytotoxicity at 70.5 h [%]
70 | Cc1nc(CN2CC[C@@H](OCC3CC3)[C@@H]2Cc2cccnc2)cs1 | -0.893
71 | O=C(NC1CC1)N1CC[C@H]2[C@H]1CCN2c1ncccn1 | -6.35
72 | CCS(=O)(=O)N1CCC(OCCCc2ccccc2)C1 (stereo not drawn) | -3.57
73 | CCN(CC)S(=O)(=O)c1ccc(CNC(=O)c2cc(C)on2)cc1 | -2.55
74 | CC(=O)N1CCC(c2cnc(NC3CCOCC3)cn2)CC1 | -6.84
75 | CN1[C@H](CN2CCCC2)C[C@@H]2CN(Cc3ccoc3)CC[C@@H]21 | 4.1
76 | O=C(CC1=CSC2=NCCCN12)N1CCCCCC1c1ccco1 (stereo not drawn) | 9.09
77 | Cc1nn(C)c(C)c1C(=O)NC(C)CC(=O)c1cccs1 (stereo not drawn) | -11.1
78 | O=S(=O)(C1CC1)N1CC[C@H](OCC2CC2)[C@@H]1Cc1ccncc1 | -4.87
79 | c1csc(CCNC2CCc3ncnn3C2)c1 (stereo not drawn) | 0.839
80 | CC(C)CN1Cc2c(C(=O)NC3CC3)ncn2-c2ccccc2S1(=O)=O | -15.8
81 | O=C(CCc1nccs1)N1CCN(c2cccnn2)CC1 | -3.92
82 | Cc1ccccc1CC(=O)N1C[C@@H](O)[C@H](N2CCOCC2)C1 | 3.85
83 | COc1ccc(F)c(-c2cc(C(=O)NC3CC3)ccn2)c1 | -14.2
84 | CN(C)c1ncccc1CNC(=O)NCc1cccs1 | 1.41
85 | O=C(COCC1CC1)N1CCCC1c1nc(-c2ccccc2F)c[nH]1 (stereo not drawn) | 2.15
86 | CN(C)CCOCc1nnc2n1CCN(Cc1ccsc1)C2 | 2.24
87 | O=C(Cc1ccc(Br)s1)NCC(=O)Nc1cn[nH]c1 | -9.18
88 | O=C(c1cnn2c(-c3ccco3)ccnc12)N1CCCCCC1 | -8.53
89 | c1cncc(CO[C@H]2CC[C@H]3[C@@H]2OCCN3C2CCOCC2)c1 | -2.22
90 | N#CC1(C(=O)N2CCOC(c3ccc(F)cc3)C2)CCCC1 (stereo not drawn) | -15.9
91 | CC1c2ncc(CNC(=O)C3CC3)n2CCN1Cc1ccccn1 (stereo not drawn) | 0.0373
92 | CCOc1ccc(C(=O)CC(SC2CCCCC2)C(=O)O)cc1 (stereo not drawn) | -6.29

Row | Structure (SMILES) | cytotoxicity at 70.5 h [%]
93 | CC(C)(C)C(O)CN1CCN(CC(=O)NC2CCOCC2)CC1 (stereo not drawn) | -7.28
94 | CCc1nc(CCNc2ncccn2)sc1C | -7.68
95 | Cn1cc(CNCCNc2ncc(Cl)cc2Cl)cn1 | -4.79
96 | CCOc1cc(C)ccc1NC(=O)N(C)Cc1cnn(C)c1 | -3.49
97 | CNC(=O)c1cc2c(nc1NCC(C)C)CCN(c1ncccn1)CC2 | 4.12
98 | CCn1c(CN2CCCC2)nnc1C1CCN(Cc2ccncc2)CC1 | 19.4
99 | Cn1cc([C@@H]2CN(S(C)(=O)=O)C[C@H]2N)c2ccncc21 | 19
100 | CCN(CC(F)(F)F)C(=O)C1CCCN(Cc2cscn2)C1 (stereo not drawn) | 26.1
101 | CC(=O)c1c(C)nn(CC(=O)N2Cc3cnc(CC(C)C)nc3C2)c1C | -8.3
102 | Cc1cc(CN2CCN(Cc3cc(C#N)ccc3F)CC2)no1 | 0.144
103 | CC(C)(C)c1ncc(CNc2ccccc2SCCC(N)=O)s1 | 3.11
104 | Cc1nn(C)c(N(C)C)c1CNCc1cccnc1N1CCOCC1 | -8.33
105 | CN(C)c1cc(C(=O)Nc2cccnc2N2CCSCC2)ccn1 | -9.49
106 | Cc1ccc2c(c1)OC(C)CN2C(=O)c1c[nH]c(C)cc1=O (stereo not drawn) | 2.52
107 | Cc1cc(NC(=O)Cn2ccccc2=O)n(C)n1 | -11.7
108 | Cc1ncc(CNC(=O)NCc2c(F)cccc2OC(F)F)s1 | -0.321
109 | CC(C)(CO)Nc1cc(-c2ccccc2)ncn1 | -2.92
110 | Cc1cccc(CN2CC[C@H]3C[C@H](C)O[C@@H]3C2)n1 | -4.58
111 | Cc1ccccc1CN(C)C(=O)CN1CCOC(Cn2cncn2)C1 (stereo not drawn) | 1.73
112 | CCC1=N[C@@]2(CC[C@@H]3CN(C(=O)NCC(C)C)C[C@@H]32)C(=O)N1CC(C)C | -9.11
113 | CC(C)N1CCCn2nc(C(=O)NCCc3c[nH]cn3)cc2C1 | 19.8
